The supplement of paper PMC10307832

Legend:
Assay in all cases: relative viability (nuclei count vs DMSO), 5 days (fraction); higher = more cells survive
[1] = compound: O=C(C[C@H]1NCCC[C@@H]1O)Cn1cnc2cc(Br)c(Cl)cc2c1=O (racemic) [Halofuginone] + CC(=O)Nc1cccc(-n2c(=O)n(C3CC3)c(=O)c3c(Nc4ccc(I)cc4F)n(C)c(=O)c(C)c32)c1 [Trametinib] (partner 0.02 µM)
In short: (§1)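 One day after seeding in 1536-well plates, lung cancer cell lines were dosed by pin tool. Dosing was either single-drug or a fixed anchor-drug dose plus five library-drug doses (not always all listed) in √10 steps. After 5 days, nuclei were stained in one fix-and-stain step and counted on 4× images, and relative viability is the nuclei count of treated wells over that of vehicle wells, given as the median of duplicate plates.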

[2] = compound: COc1cc2c(Oc3ccc4[nH]c(C)cc4c3F)ncnc2cc1OCCCN1CCCC1 [Cediranib] + O=C(c1cc(Cc2n[nH]c(=O)c3ccccc23)ccc1F)N1CCN(C(=O)C2CC2)CC1 [Olaparib] (partner 8 µM)
In short: as §1

[3] = compound: COc1cc2c(Oc3ccc4[nH]c(C)cc4c3F)ncnc2cc1OCCCN1CCCC1 [Cediranib] + CCNC(=O)c1noc(-c2cc(C(C)C)c(O)cc2O)c1-c1ccc(CN2CCOCC2)cc1 [Luminespib] (partner 0.01 µM)
In short: as §1

Cell Line | relative viability ([1]; first compound 0.001 µM) | relative viability ([1]; first compound 0.003162 µM) | relative viability ([1]; first compound 0.01 µM) | relative viability ([1]; first compound 0.03162 µM) | relative viability ([1]; first compound 0.1 µM) | relative viability ([2]; first compound 0.04 µM) | relative viability ([2]; first compound 0.1265 µM) | relative viability ([2]; first compound 0.4 µM) | relative viability ([2]; first compound 1.265 µM) | relative viability ([2]; first compound 4 µM) | relative viability ([3]; first compound 0.04 µM) | relative viability ([3]; first compound 0.1265 µM) | relative viability ([3]; first compound 0.4 µM) | relative viability ([3]; first compound 1.265 µM) | relative viability ([3]; first compound 4 µM)
NCI-H2023 | 0.625 | 0.482 | 0.558 | 0.202 | 0.0677 | 0.511 | 0.445 | 0.47 | 0.445 | 0.527 | 0.844 | 0.639 | 0.732 | 0.405 | 0.53
EBC-1 | – | – | – | – | – | 0.715 | 0.744 | 0.668 | 0.786 | 0.88 | – | – | – | – | –
NCI-H1666 | 0.944 | 0.852 | 0.79 | 0.865 | 0.68 | 0.737 | 0.716 | 0.719 | 0.696 | 0.726 | 1.05 | 1.04 | 1.05 | 0.981 | 1.07
NCI-H1975 | 0.448 | 0.317 | 0.361 | 0.298 | 0.157 | 0.841 | 0.752 | 0.768 | 0.773 | 0.773 | 0.166 | 0.14 | 0.207 | 0.194 | 0.196
NCI-H2170 | 0.856 | 0.852 | 0.954 | 0.948 | 0.868 | 0.575 | – | 0.533 | 0.598 | 0.726 | 0.654 | 0.704 | 0.666 | 0.547 | 0.848
NCI-H1355 | 0.481 | 0.429 | 0.4 | 0.415 | 0.4 | 0.689 | 0.727 | 0.723 | 0.787 | 0.784 | 0.739 | 0.871 | 0.686 | 0.813 | 0.719
NCI-H1648 | 0.46 | 0.449 | 0.582 | 0.495 | 0.497 | 0.519 | 0.824 | 0.901 | 1.2 | 1.31 | – | – | – | – | –
A549 | – | – | – | – | – | 0.353 | 0.23 | 0.302 | 0.333 | 0.473 | – | – | – | – | –
SK-MES-1 | 0.554 | 0.53 | 0.511 | 0.499 | 0.232 | 0.728 | 0.73 | 0.642 | 0.685 | 0.899 | 0.797 | 0.869 | 0.9 | 0.833 | 0.86
EKVX | 0.383 | 0.358 | 0.339 | 0.37 | 0.314 | 0.783 | 0.949 | 0.803 | – | 0.851 | 0.965 | 0.969 | 0.822 | 0.742 | 0.995
RERF-LC-KJ | 0.924 | 0.984 | 0.837 | 0.824 | 0.591 | 0.841 | 0.866 | 0.915 | 0.998 | 0.979 | 1.39 | 1.15 | 1.27 | 1.25 | 1.25
NCI-H1755 | 0.793 | 0.786 | 0.745 | 0.774 | 0.765 | 0.918 | 0.791 | 0.867 | 0.836 | 0.955 | 0.556 | 0.419 | 0.403 | 0.232 | 0.467
NCI-H661 | 0.624 | 0.629 | 0.579 | 0.515 | 0.373 | 0.763 | 0.785 | 0.713 | 0.703 | 0.817 | 0.978 | 0.842 | 0.913 | 0.908 | 0.982
LOU-NH91 | 0.819 | 0.817 | 0.724 | 0.778 | 0.697 | 0.972 | 0.936 | 0.88 | 0.908 | 0.86 | 0.354 | 0.272 | 0.286 | 0.314 | 0.338
LXF-289 | 0.688 | 0.717 | 0.66 | 0.707 | 0.676 | 1.09 | – | 1.03 | 1 | 1.15 | 0.719 | 0.52 | 0.587 | 0.7 | 0.55
HCC-44 | 1.04 | 1.1 | 1.05 | 1.13 | 0.966 | 0.966 | 0.894 | 0.963 | 0.932 | 0.974 | – | – | 0.986 | 1.07 | 0.843
HARA | 0.918 | 1.27 | 0.639 | 0.968 | 0.221 | 0.626 | 1.22 | 0.675 | 1.01 | 0.692 | 0.822 | – | 0.528 | 0.775 | 1.09
201T | 0.71 | 0.715 | 0.703 | 0.723 | 0.663 | 0.805 | 0.862 | 0.808 | 0.829 | 0.828 | 1.2 | 1.34 | 1 | 1.03 | 1.03
LC-2-ad | 0.897 | 0.988 | 0.936 | 0.917 | 0.701 | 0.737 | 0.689 | 0.664 | 0.732 | 0.839 | 1.05 | 1.06 | 0.99 | 1.08 | 0.772
NCI-H596 | 0.889 | 0.732 | 0.811 | 0.898 | 0.542 | 0.798 | 0.8 | 0.721 | 0.99 | 0.731 | 0.709 | 1.06 | 0.98 | – | 0.955
NCI-H1437 | 0.548 | 0.553 | 0.558 | 0.481 | 0.387 | 0.662 | 0.614 | 0.615 | 0.599 | 0.627 | 1.15 | 1.05 | 1.04 | 1.1 | 1.13

Cell Line | relative viability ([1]; first compound 0.001 µM) | relative viability ([1]; first compound 0.003162 µM) | relative viability ([1]; first compound 0.01 µM) | relative viability ([1]; first compound 0.03162 µM) | relative viability ([1]; first compound 0.1 µM) | relative viability ([2]; first compound 0.04 µM) | relative viability ([2]; first compound 0.1265 µM) | relative viability ([2]; first compound 0.4 µM) | relative viability ([2]; first compound 1.265 µM) | relative viability ([2]; first compound 4 µM) | relative viability ([3]; first compound 0.04 µM) | relative viability ([3]; first compound 0.1265 µM) | relative viability ([3]; first compound 0.4 µM) | relative viability ([3]; first compound 1.265 µM) | relative viability ([3]; first compound 4 µM)
NCI-H727 | 0.44 | 0.362 | 0.403 | 0.406 | 0.422 | 0.656 | 0.679 | 0.684 | 0.728 | 0.73 | – | – | 0.511 | 0.463 | 0.395
PC-3 [JPC-3] | 0.722 | 0.741 | 0.664 | 0.648 | 0.538 | 1.23 | – | 1.09 | 1.21 | 0.834 | 0.649 | 0.654 | 0.665 | 0.735 | 0.449
SW 1573 | 0.563 | – | 0.596 | 0.23 | 0.0886 | 0.522 | 0.485 | 0.504 | 0.42 | 0.488 | 0.347 | 0.324 | 0.256 | 0.21 | 0.24
NCI-H2228 | 0.662 | 0.4 | 0.436 | 0.39 | 0.0996 | 0.801 | 1.02 | 0.642 | 0.707 | 0.556 | 0.118 | 0.176 | 0.129 | 0.144 | 0.14
NCI-H1650 | 0.656 | 0.696 | 0.55 | 0.57 | 0.216 | 0.825 | 0.801 | 0.771 | 0.707 | 0.845 | 0.192 | 0.161 | 0.179 | 0.197 | 0.173
NCI-H358 | 0.158 | 0.138 | 0.12 | 0.119 | 0.0998 | 0.659 | 0.66 | 0.503 | 0.64 | 0.666 | 0.257 | 0.426 | 0.381 | 0.328 | 0.364
NCI-H1792 | 0.402 | 0.469 | 0.51 | 0.522 | 0.18 | – | 0.713 | 0.321 | 0.435 | 0.557 | 0.429 | 0.644 | 0.479 | 0.538 | 0.508
COR-L 105 | 0.446 | 0.492 | 0.481 | 0.421 | 0.383 | 0.737 | 0.657 | 0.715 | 0.707 | 0.687 | 0.706 | 0.726 | 0.731 | 0.864 | 0.68
LU99A | 0.554 | 0.598 | 0.545 | 0.589 | 0.536 | 0.236 | – | 0.244 | 0.267 | 0.314 | 0.301 | 0.255 | 0.252 | 0.269 | 0.256
H3255 | 0.746 | 0.73 | 0.543 | 0.716 | 0.517 | 0.524 | 0.503 | 0.564 | 0.643 | 0.542 | 0.83 | – | 0.879 | 0.709 | 0.992
NCI-H1734 | 0.68 | 0.721 | 0.733 | 0.602 | 0.171 | 0.683 | 0.623 | 0.59 | 0.676 | 0.764 | 0.238 | 0.185 | 0.208 | 0.208 | 0.176
NCI-H650 | 0.898 | 1.19 | 1.09 | 1.08 | 0.77 | 0.331 | 0.282 | 0.423 | 0.405 | 0.583 | 0.842 | 0.831 | 0.763 | 1.02 | 0.774
Calu-6 | – | – | – | – | – | 0.592 | 0.566 | 0.599 | 0.582 | 0.56 | – | – | – | – | –
NCI-H1623 | – | – | – | – | – | – | – | – | – | – | 0.528 | – | 0.425 | 0.457 | 0.526
NCI-H1299 | – | – | – | – | – | 0.999 | 0.96 | 0.92 | 0.949 | 0.97 | – | – | – | – | –
NCI-H1703 | – | – | – | – | – | 0.389 | 0.388 | 0.173 | 0.163 | 0.243 | – | – | – | – | –
ABC-1 | – | – | – | – | – | 0.875 | 0.997 | 0.823 | 1.14 | 0.726 | 0.885 | 0.714 | – | 0.44 | 0.486
IA-LM | – | – | – | – | – | 0.993 | 0.848 | 0.824 | 0.867 | 1.02 | – | – | – | – | –
HCC-366 | 0.395 | 0.404 | 0.338 | 0.322 | 0.166 | 0.413 | 0.354 | 0.392 | 0.362 | 0.395 | – | – | – | – | –
HCC-78 | 0.775 | 0.718 | 0.709 | 0.766 | 0.503 | 0.963 | 1.01 | 0.83 | 0.96 | 1.04 | – | – | – | – | –
NCI-H1563 | – | – | – | – | – | – | – | – | – | – | 0.513 | 0.456 | 0.541 | 0.559 | 0.601
